Measured values published in patent publication US9260444B2, “Crystalline form of 2-((1′-n-hexyloxy) ethyl)-2-divinyl-pyropheophorbide-a and method for preparing thereof” (Zhejiang Hisun Pharmaceutical Co., Ltd., priority 2012, dated 2016).

Experiments:
[1] = Long term stability experiment of the HPPH crystal; assay type: physicochemical; settings: for Total impurity (%) / Content (based on dry weight, %): Temp 25° C. ± 2° C., Humidity 60% ± 5%; for Content (based on dry weight, %): standard content 98.0% to 102.0%
Description: (§1) According to the Guidelines to the stability studies of active pharmaceutical ingredient and pharmaceutical preparation (Chinese Pharmacopoeia, 2010 Edition, the Second Part, Appendix XIX C) (Appendix 199 to 200), selecting the HPPH crystal sample prepared in Embodiment 1 (Lot No. S111101), mimicking pack to selling, placing it in an incubator at the temperature of 25° C.±2° C., and the relative humidity of 60%±5%, after 6 months, taking the sample out, and examining it with the key examination items for stability, then comparing the examination results with the results obtained in the 0 month.

[2] = Accelerated stability experiment of the HPPH crystal; assay type: physicochemical; settings: for Total impurity (%) / Content (based on dry weight, %): Temp 40° C. ± 2° C., Humidity 75% ± 5%; for Content (based on dry weight, %): standard content 98.0% to 102.0%
Description: as §1, with “placing” for “placing it”, “40°” for “25°”, “75%±5%,” for “60%±5%,”

esophageal cancer = settings: cited from earlier work

2-((1′-n-hexyloxy)ethyl)-2-divinyl-pyropheophorbide-a [HPPH crystal]
Change of key stability examination items versus 0 month ([1]; 25° C. ± 2° C., relative humidity 60% ± 5%, after 6 months): no examination item has shown significant change | Total impurity (%) ([1]; 0 month): 0.25% | Content (based on dry weight, %) ([1]; 0 month): 99.9% | Total impurity (%) ([1]; 6 months): 0.26% | Content (based on dry weight, %) ([1]; 6 months): 99.8% | Content in the 6 month sample versus 0 month ([2]; 40° C. ± 2° C., relative humidity 75% ± 5%, after 6 months): slightly lower, yet still within the acceptable range | Total impurity (%) ([2]; 0 month): 0.25% | Content (based on dry weight, %) ([2]; 0 month): 99.9% | Total impurity (%) ([2]; 6 months): 0.27% | Content (based on dry weight, %) ([2]; 6 months): 98.9%

2-((1′-n-hexyloxy)ethyl)-2-divinyl-pyropheophorbide-a [HPPH]
Photodynamic therapeutic efficacy (esophageal cancer; 5 esophageal cancer patients, very low dose): very good photodynamic therapeutic efficacy | Photosensitive side effect of skin (esophageal cancer; clinical observation, esophageal cancer patients): no photosensitive side effect of skin has been observed
